Numbered stars: 1 amine (or outer) side, 2 acyl side, 3 side chain; on linkers, the order of the positions; unused ones are H or OH. Bridge positions count the residues as written; N and C are the ends. Square brackets hold non-standard residues; d marks the D form. Peptide text beside a SMILES is read from it. I, II: the chains in the order shown. * marks the point of attachment. Dolaproine = CO[C@@H]([C@@H]1CCCN1)[C@@H](C)C(=O)O; Dil = CC[C@H](C)[C@H](NC)[C@@H](CC(=O)O)OC; X1 = O=C(CCCc1cn(CCOCCOCCN[*:1])nn1)[*:2]; PABC = O=C(OCc1ccc(N[*:1])cc1)[*:2]; X2 = C[C@@H](N*)[C@@H](O)c1ccccc1; Suc = O=C(CCC(=O)[*:2])[*:1]; NMeV = CN[C@H](C(=O)O)C(C)C A value given as a limit tells only on which side of the number the result lay.

One data set has as its system M21-L cells. The experiment in a line: Cell adhesion assay on vitronectin, αVβ3-negative cells. It counts as cell-based. To be noted: for IC50: adhesion of M21-L cells to vitronectin, read-out: M21-L (αV−, αVβ3−) IC50, cell adhesion. The procedure: (§1) WM115 cells were cultivated and used in the MEM Eagle medium (Pan Biotech P04-08500 with 10% fetal bovine serum, 50 μg/ml gentamycin, and 0.5 mM sodium pyruvate) and M21-L cells in the RPMI medium (Pan Biotech P04-16500 with 10% fetal bovine serum, 1% Pen-Strep). A flat-bottom MaxiSorp Nunc 96-well plate was coated with recombinant human vitronectin (100 µl/well, 1 μg/ml, Peprotech) in the PBS buffer (137 mM NaCl, 2.7 mM KCl, 10 mM Na2HPO4, 2 mM KH2PO4, pH 7.4) at 4°C and blocked at the following day by adding a solution of fatty acid free milk powder in PBS buffer (5 w/v %, 100 µl/well) at 4°C. The WM115 and M21-L cells were washed with the PBS buffer, detached with Accutase solution (5 ml, Pan Biotech P10-21100) at 37°C for 5 min, and then diluted with the medium (15 ml). After centrifugation (850 rpm, 6 min), the resulting cell pellet was resuspended with fluorescein diacetate in the medium (fluorescein diacetate 1.5 mg/ml, cell density 5·× 10^5 cells/ml) and incubated for 30 min at 37°C in the dark. The cells were washed twice with the medium and then resuspended in the medium (cell density 5 × 10^5 cells/ml). Afterward, a solution of CaCl2, MnCl2, and MgCl2 (each 100 mM) in the PBS buffer (90 µl) was transferred to the cells and incubated for 30 min on ice in the dark. In the meantime, a dilution series of the compounds in the medium (1:3 dilution) was prepared, and 240 µl were transferred to Eppendorf tubes. Pure medium was used as a positive control. Cell suspension (240 µl) was added to each tube of the dilution series and the control, followed by incubation at 37°C for 30 min in the dark. The assay plate was discharged and washed with 200 µl/well medium. Then the cell suspension with different compound concentrations was added to the assay plate (100 µl/well) and incubated for 60 min at 37°C in the dark. Afterward, the assay plate was washed with the medium (3 × 100 µl/well), and finally, the medium (100 µl/well) was added and the fluorescence was measured with a TecanReader (Excitation: 480 nm; Emission: 520 nm). The determined values were plotted and analyzed using OriginPro® 2020b where the inflection point of a DoseResp fit described the IC50 value.
WM115 cells were cultivated and used in MEM Eagle medium (Pan Biotech P04-08500 with 10 % foetal bovine serum, 50 µg/mL gentamycin, 0.5 mM sodium pyruvate) and M21-L cells in RPMI medium (Pan Biotech P04-16500 with 10 % foetal bovine serum, 1 % Pen-Strep). Overnight a flat-bottom MaxiSorp Nunc 96-well plate was coated with recombinant human vitronectin (100 µL/well, 1 µg/mL, Peprotech) in PBS buffer (137 mM NaCl, 2.7 mM KCl, 10 mM Na2HPO4,2 mM KH2PO4, pH 7.4) at 4 °C and blocked at the following day by adding a solution of fatty acid free milk powder in PBS buffer (5 w/v %, 100 µL/well) at 4 °C. […]

Data set [1] concerns WM115 cells. The data set can be described thus: Cell adhesion assay on vitronectin, αVβ3-positive cells. Format: cell-based. To be noted: adhesion of WM115 cells to vitronectin. The procedure: as §1, with “Then the cell suspension with different compound concentrations was added to the assay plate (100 µl/well) and incubated for 60 min at 37°C in the dark.” left out, “value. […]” for “value.”

The subject of data set [2] is WM115 cells. The data set can be described thus: Cell viability assay (resazurin based). To be noted: for IC50: 3 days incubation, resazurin, read-out: Cytotoxicity IC50; for fold less cytotoxic than MMAE: relative to free MMAE. The procedure:
(§2) WM115 cells were cultivated in the MEM medium (with 10% fetal bovine serum, 50 μg/ml gentamycin, and 0.5 mM sodium pyruvate) at 37°C and 5.3% CO2-humidified air in an incubator. The cells were seeded in a sterile flat-bottom cell culture 96-well plate (Sarstedt) in a density of 10,000 cells/well (100 µl/well) and incubated for 1 day as described. A serial dilution (1:3 dilution) of the compounds and the standard (cryptophycin-52) in the medium was prepared and transferred to the assay plate (100 µl/well), followed by incubation for 3 days as described. Afterward, a solution of resazurin (175 μM, 30 µl/well) was added, followed by incubation for 6 h. Subsequently, the fluorescence was measured with a TecanReader (Excitation: 530 nm; Emission: 588 nm) and plotted and analyzed using OriginPro® 2020b where the inflection point of a DoseResp fit described the IC50 value. […]
(§3) WM115 cells were cultivated in MEM medium (with 10 % foetal bovine serum, 50 µg/mL gentamycin, 0.5 mM sodium pyruvate) at 37 °C and 5.3 % CO2-humidified air in an incubator. The cells were seeded in a sterile flat-bottom cell culture 96-well plate (Sarstedt) in a density of 10000 cells/well (100 µL/well) and incubated for 1 day as described. A dilution series (1:3 dilution) of the compounds and the standard (cryptophycin-52) in medium was prepared and transferred to the assay plate (100 µL/well) followed by incubation for 3 d as described. Afterwards a solution of resazurin (175 µM, 30 µL/well) was added followed by incubation for 6 h. Subsequently, the fluorescence was measured with a TecanReader (Excitation: 530 nm; Emission: 588 nm) as well as plotted and analysed using OriginPro® 2020b where the inflection point of a DoseResp fit describes the IC50 value.
On the technique in general: The colour change of resazurin is a common sign of viable cells or microbes.

Data set [3] in a line: Cell viability assay (resazurin based). To be noted: WM115 cells, 3 days incubation, resazurin; read-out: Cytotoxicity IC50. As for the experimental part: as §2, §3

The term IC50 denotes the concentration that gives 50% inhibition. With `CC[C@H](C)[C@@H]([C@@H](CC(=O)N1CCC[C@H]1[C@H](OC)[C@@H](C)C(=O)N[C@H](C)[C@@H](O)c1ccccc1)OC)N(C)C(=O)[C@@H](NC(=O)[C@H](C(C)C)N(C)C(=O)OCc1ccc(NC(=O)[C@H](C)NC(=O)[C@@H](NC(=O)[C@H](CCC(=O)O)NC(=O)CCCc2cn(CCOCCOCCNC(=O)CCC(=O)NCCCC[C@@H]3NC(=O)[C@@H](Cc4ccccc4)NC(=O)[C@H](CC(=O)O)NC(=O)CNC(=O)[C@H](CCCNC(=N)N)NC3=O)nn2)C(C)C)cc1)C(C)C` [compound 16], the values for the IC50 in the data set with M21-L cells, with WM115 cells [1] and in the data set with WM115 cells [2] were over 100000 nM, 2650 ± 350 nM and 91.4 ± 12.3 nM, respectively. In the data set with WM115 cells [2], the “fold less cytotoxic than MMAE” value is “about 50 fold”.
The matching figures for `CC[C@H](C)[C@@H]([C@@H](CC(=O)N1CCC[C@H]1[C@H](OC)[C@@H](C)C(=O)N[C@H](C)[C@@H](O)c1ccccc1)OC)N(C)C(=O)[C@@H](NC(=O)[C@H](C(C)C)N(C)C(=O)OCc1ccc(NC(=O)[C@H](C)NC(=O)[C@@H](NC(=O)[C@H](CCC(=O)O)NC(=O)CCCc2cn(CCOCCOCCNC(=O)CCC(=O)NCCCC[C@@H]3NC(=O)[C@@H](Cc4ccccc4)NC(=O)[C@H](CC(=O)O)NC(=O)[C@H](C)NC(=O)[C@H](CCCNC(=N)N)NC3=O)nn2)C(C)C)cc1)C(C)C` [compound 17] (I: [X1]EVA[PABC][NMeV]V[Dil][Dolaproine]-X2 / II: cyclo(AD[dF]KR); linker I:N-II:4 via Suc): over 100000 nM, 79100 ± 1690 nM, 264 ± 24.6 nM and 150 fold.
Turning to `CC[C@H](C)[C@@H]([C@@H](CC(=O)N1CCC[C@H]1[C@H](OC)[C@@H](C)C(=O)N[C@H](C)[C@@H](O)c1ccccc1)OC)N(C)C(=O)[C@@H](NC(=O)[C@H](C(C)C)N(C)C(=O)OCc1ccc(NC(=O)[C@H](C)NC(=O)[C@@H](NC(=O)[C@H](CCC(=O)O)NC(=O)CCCc2cn(CCOCCOCCOc3ccc(C(=O)N[C@@H](Cc4ccc(OCCCCCNC5=NCCN5)cc4)C(=O)O)cc3)nn2)C(C)C)cc1)C(C)C` [compound 18], the “effect on cell adhesion of αVβ3-negative cells” value with M21-L cells (M21-L cell line, adhesion to vitronectin) is recorded as “no effect”. Also, the half-maximal inhibitory concentration (IC50) with M21-L cells was over 100000 nM; with WM115 cells [1], 8050 ± 510 nM; in data set [3] it was 95 ± 25 nM. Further, the “TI (RAD/RGD), targeting index” value with WM115 cells [2] (TI = [IC50 (17)]/[IC50 (compound)]) is listed as 2.8. Further, the “fold less cytotoxic than MMAE” value in the data set on WM115 cells [2] was “about 50 fold”.
